Reference: publication PMC9295122, “Sialic Acid Derivatives Inhibit SiaT Transporters and Delay Bacterial Growth” (ACS Chemical Biology, 2022)
Read-outs that look alike come from different tables or passages of the source.

Assays:
PmSiaT = biological target: T1, PmSiaT (Proteus mirabilis, UniProt B4EZY7); test: nanoDSF thermal shift assay, PmSiaT; type: binding; settings: for Average 1 / Average 2 / Average 3 / Replicate 1 / Replicate 2 / Replicate 3: PmSiaT Tm; for Average 1: average of experiment 1; for Average 2: average of experiment 2; for Average 3: average of experiment 3; for Replicate 1: experiment 1, second capillary; for Replicate 1 / Replicate 2 / Replicate 3 / Tm 1 / Tm2 / Tm 3 / Tm average overall / ΔTm at 1250 µM: 1.25 mM; for Replicate 2: experiment 2, second capillary; for Replicate 3: experiment 3, second capillary; for Tm 1: experiment 1, first capillary; for Tm2: experiment 2, first capillary; for Tm 3: experiment 3, first capillary; for Tm average overall / ΔTm at 1250 µM: three experiments; for ΔTm at 1250 µM: vs Neu5Ac, read-out: ΔTm average overall
T1 construct: made in house
T1 sequence (B4EZY7 1-496): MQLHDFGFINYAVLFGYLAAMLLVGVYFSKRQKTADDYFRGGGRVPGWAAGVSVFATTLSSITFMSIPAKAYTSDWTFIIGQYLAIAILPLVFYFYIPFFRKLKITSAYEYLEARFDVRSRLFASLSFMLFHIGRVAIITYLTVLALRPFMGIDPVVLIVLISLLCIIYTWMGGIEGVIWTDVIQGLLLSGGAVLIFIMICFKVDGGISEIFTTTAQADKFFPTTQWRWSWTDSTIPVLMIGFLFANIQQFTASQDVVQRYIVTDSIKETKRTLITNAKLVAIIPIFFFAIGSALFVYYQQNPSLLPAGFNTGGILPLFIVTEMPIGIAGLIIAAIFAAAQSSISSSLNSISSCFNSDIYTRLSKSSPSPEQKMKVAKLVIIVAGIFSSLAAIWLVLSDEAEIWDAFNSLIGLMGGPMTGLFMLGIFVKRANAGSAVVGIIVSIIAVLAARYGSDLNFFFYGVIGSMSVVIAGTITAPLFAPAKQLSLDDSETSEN
Description: (§1) Nano-differential scanning fluorimetry (nanoDSF) is a high-throughput method that relies on the thermal stabilization of the folded protein state by a bound ligand.[33]
(§2) The melting points of protein–inhibitor complexes were measured on a Prometheus NT.48 instrument from NanoTemper Technologies. Solutions containing the protein at 2 μM in phosphate buffered saline with 0.0174% (w/v) dodecylmaltoside (DDM) and the ligand at 1.25 mM were loaded onto standard capillaries by NanoTemper. The temperature was increased from 25 to 95 °C at a ramp rate of 1 °C/min. The fluorescence was recorded at 330 and 350 nm and as a ratio of the two wavelengths.
(§3) The intensity ratio and its first derivative were calculated using manufacturer’s software (PR.ThermControl, version 2.1.2).
(§4) The melting temperatures have been measured in 3 separate experiments. In each experiment, two capillaries were included per compound, having therefore 2 technical replicates per experiment. In the table all data is presented. Tm1 and Replicate 1 represent the two replicates of the first experiment. Average 1 is the average between Tm 1 and Replicate 1. ΔTm 1 is the thermal shift when compared to the Tm of Neu5Ac. This is calculated from Average 1. The ΔTm presented in the article are the ΔTm average overall, which represent the overall average of the averages from the three experiments. The standard deviation (SD) is calculated from the […]

SaSiaT = SaSiaT (Staphylococcus aureus, UniProt A0A0H2XJ46); test: nanoDSF thermal shift assay, SaSiaT; type: binding; settings: for Average 1 / Average 2 / Average 3 / Replicate 1 / Replicate 2 / Replicate 3: SaSiaT Tm; for Average 1: average of experiment 1; for Average 2: average of experiment 2; for Average 3: average of experiment 3; for Replicate 1: experiment 1, second capillary; for Replicate 1 / Replicate 2 / Replicate 3 / Tm 1 / Tm2 / Tm 3 / Overall average (Tm): 1.25 mM; for Replicate 2: experiment 2, second capillary; for Replicate 3: experiment 3, second capillary; for Tm 1: experiment 1, first capillary; for Tm2: experiment 2, first capillary; for Tm 3: experiment 3, first capillary; for Overall average (Tm): three experiments
Description: as §1, §2, §3, §4

[1] = PmSiaT, experiment 1, vs Neu5Ac, read-out: ΔTm 1
[2] = PmSiaT, experiment 2, vs Neu5Ac, read-out: ΔTm 2
[3] = PmSiaT, experiment 3, vs Neu5Ac, read-out: ΔTm 3

Average 1 (PmSiaT)	Average 2 (PmSiaT)	Average 3 (PmSiaT)	Replicate 1 (PmSiaT)	Replicate 2 (PmSiaT)	Replicate 3 (PmSiaT)	Tm 1 (PmSiaT; PmSiaT)	Tm2 (PmSiaT; PmSiaT)	Tm 3 (PmSiaT; PmSiaT)	Tm average overall (PmSiaT; PmSiaT)	Average 1 (SaSiaT)	Average 2 (SaSiaT)	Average 3 (SaSiaT)	Replicate 1 (SaSiaT)	Replicate 2 (SaSiaT)	Replicate 3 (SaSiaT)	Tm 1 (SaSiaT; SaSiaT)	Tm2 (SaSiaT; SaSiaT)	Tm 3 (SaSiaT; SaSiaT)	Overall average (Tm) (SaSiaT; SaSiaT)	SMILES	also measured
45.9 °C	46.2 °C	46.1 °C	45.8 °C	46.0 °C	46.0 °C	46.1 °C	46.3 °C	46.2 °C	46.1 °C	51.0 °C	49.2 °C	50.8 °C	50.9 °C	49.2 °C	50.4 °C	51.0 °C	49.3 °C	51.3 °C	50.3 °C	CSCC(O)C(O)C1OC(O)(C(=O)O)CC(O)C1NC(C)=O (stereo not shown) [Compound 8a]	ΔTm (PmSiaT; [1]): -3.1 °C; ΔTm (PmSiaT; [2]): -3 °C; ΔTm (PmSiaT; [3]): -3.2 °C; ΔTm at 1250 µM (PmSiaT; PmSiaT): -3.1 °C
45.9 °C	45.9 °C	46.1 °C	45.9 °C	46.0 °C	46.1 °C	45.8 °C	45.9 °C	46.2 °C	46.0 °C	49.9 °C	48.6 °C	49.8 °C	49.9 °C	48.7 °C	49.6 °C	49.9 °C	48.5 °C	50.0 °C	49.4 °C	CCSCC(O)C(O)C1OC(O)(C(=O)O)CC(O)C1NC(C)=O (stereo not shown) [Compound 8b]	ΔTm (PmSiaT; [1]): -3.1 °C; ΔTm (PmSiaT; [2]): -3.3 °C; ΔTm (PmSiaT; [3]): -3.2 °C; ΔTm at 1250 µM (PmSiaT; PmSiaT): -3.2 °C
47.3 °C	47.2 °C	47.2 °C	47.4 °C	47.1 °C	47.0 °C	47.2 °C	47.3 °C	47.4 °C	47.2 °C	49.9 °C	49.9 °C	51.8 °C	49.8 °C	49.9 °C	52.8 °C	49.9 °C	49.9 °C	50.8 °C	50.5 °C	CC(=O)NC1C(O)CC(O)(C(=O)O)OC1C(O)C(O)CBr (stereo not shown) [Compound 8d]	ΔTm (PmSiaT; [1]): -1.7 °C; ΔTm (PmSiaT; [2]): -2 °C; ΔTm (PmSiaT; [3]): -2.1 °C; ΔTm at 1250 µM (PmSiaT; PmSiaT): -1.9 °C
46.9 °C	47.2 °C	47.3 °C	46.7 °C	47.2 °C	47.2 °C	47.2 °C	47.3 °C	47.3 °C	47.1 °C	49.3 °C	49.0 °C	49.5 °C	49.3 °C	48.9 °C	49.1 °C	49.2 °C	49.0 °C	49.9 °C	49.3 °C	CC(=O)NC1C(O)CC(O)(C(=O)O)OC1C(O)C(O)CI (stereo not shown) [Compound 8e]	ΔTm (PmSiaT; [1]): -2.1 °C; ΔTm (PmSiaT; [2]): -2 °C; ΔTm (PmSiaT; [3]): -2 °C; ΔTm at 1250 µM (PmSiaT; PmSiaT): -2 °C

The remaining lines, values behind:

SMILES	Average 1 (PmSiaT)	Average 2 (PmSiaT)	Average 3 (PmSiaT)	Replicate 1 (PmSiaT)	Replicate 2 (PmSiaT)	Replicate 3 (PmSiaT)	Tm 1 (PmSiaT; PmSiaT)	Tm2 (PmSiaT; PmSiaT)	Tm 3 (PmSiaT; PmSiaT)	Tm average overall (PmSiaT; PmSiaT)	Average 1 (SaSiaT)	Average 2 (SaSiaT)	Average 3 (SaSiaT)	Replicate 1 (SaSiaT)	Replicate 2 (SaSiaT)	Replicate 3 (SaSiaT)	Tm 1 (SaSiaT; SaSiaT)	Tm2 (SaSiaT; SaSiaT)	Tm 3 (SaSiaT; SaSiaT)	Overall average (Tm) (SaSiaT; SaSiaT)	also measured
O=C(CCl)NC1C(O)CC(O)(C(=O)O)OC1C(O)C(O)CO (stereo not shown) [Compound 6g]	49.8 °C	49.9 °C	49.5 °C	49.7 °C	49.9 °C	49.5 °C	49.9 °C	49.9 °C	49.5 °C	49.7 °C	49.0 °C	49.2 °C	49.3 °C	49.0 °C	49.0 °C	48.9 °C	49.0 °C	49.4 °C	49.7 °C	49.2 °C	ΔTm (PmSiaT; [1]): 0.8 °C; ΔTm (PmSiaT; [2]): 0.7 °C; ΔTm (PmSiaT; [3]): 0.2 °C; ΔTm at 1250 µM (PmSiaT; PmSiaT): 0.6 °C
[N-]=[N+]=NCC(=O)N[C@H]1[C@H]([C@H](O)[C@H](O)CO)O[C@@](O)(C(=O)O)C[C@@H]1O [Compound 6h, 5-azidoacetamido-3,5-dideoxy-D-glycero-α-galacto-non-2-ulopyranosonate, reference compound]	49.2 °C	49.0 °C	49.1 °C	49.2 °C	48.8 °C	49.3 °C	49.2 °C	49.2 °C	49.0 °C	49.1 °C	52.8 °C	52.9 °C	52.8 °C	52.7 °C	53.0 °C	52.7 °C	52.8 °C	52.7 °C	52.8 °C	52.8 °C	ΔTm (PmSiaT; [1]): -0.1 °C; ΔTm (PmSiaT; [2]): 0.1 °C; ΔTm (PmSiaT; [3]): 0 °C; ΔTm at 1250 µM (PmSiaT; PmSiaT): 0 °C
CC(=O)NC1C(O)CC(O)(C(=O)O)OC1C(O)C(O)CCl (stereo not shown) [Compound 8c]	47.7 °C	47.9 °C	48.0 °C	47.8 °C	47.9 °C	48.1 °C	47.6 °C	47.9 °C	47.9 °C	47.9 °C	48.9 °C	49.6 °C	49.7 °C	48.9 °C	49.6 °C	49.6 °C	48.9 °C	49.5 °C	49.8 °C	49.4 °C	ΔTm (PmSiaT; [1]): -1.3 °C; ΔTm (PmSiaT; [2]): -1.3 °C; ΔTm (PmSiaT; [3]): -1.3 °C; ΔTm at 1250 µM (PmSiaT; PmSiaT): -1.3 °C
CC(=O)NC1C(O)CC(O)(C(=O)O)OC1C(O)C(C)O (stereo not shown) [Compound 8f]	46.0 °C	45.9 °C	45.9 °C	46.0 °C	45.9 °C	45.9 °C	46.0 °C	45.8 °C	45.9 °C	45.9 °C	43.1 °C	43.0 °C	42.9 °C	42.9 °C	43.1 °C	43.0 °C	43.2 °C	43.0 °C	42.8 °C	43.0 °C	binding / thermal stabilization in words (PmSiaT; PmSiaT, nanoDSF screen): complete loss of affinity; binding / thermal stabilization in words (SaSiaT; SaSiaT, nanoDSF screen): complete loss of affinity
